Experimental data taken from patent US20080274522A1, “METHOD FOR THE PRODUCTION OF 2-BUTANONE” (priority 2007, published 2008).

Tests used:
[1] = tested on: Erwinia amino alcohol O-phosphate lyase; assay: Aminopropanol O-phosphate lyase assay (MBTH, OD670); format: biochemical, Erwinia carotovora subsp. atroseptica; conditions: 10 mM substrate, 37° C.
Procedure: The pBAD.KA-AT plasmid was transformed into the E. coli TOP10 strain. A 50 mL culture of TOP10/pBAD.KA-AT strain was grown to mid log phase (OD600=0.6) in LB, 100 μg/mL ampicillin media at 37° C. with shaking at 250 rpm. The culture was induced by addition of L-arabinose to a final concentration of 0.1% (w/v), and it was further incubated at 37° C. for 5 h before harvesting by centrifugation. The cell pellet was resuspended in ice cold 50 mM Tris-HCl, pH 8.0, and disrupted by sonication on ice with a Fischer Sonic Model 300 Dismembrator (Fischer, Pittsburgh, Pa.) at 50% power, repeating four cycles of 30 seconds sonication with 60 seconds rest in-between each cycle. Each sonicated sample was centrifuged (15,000×g, 4 min, 4° C.). Clarified cell free extracts were analyzed for protein expression level and amino alcohol O-phosphate lyase activity.
The aminopropanol O-phosphate lyase assay was performed as described by Jones et al. (1973, Biochem. J. 134:167-182) and G. Gori et al. (1995, Chromatographia 40:336) The formation of propionaldehyde from aminopropanol O-phosphate was assayed calorimetrically with MBTH, which allows the detection of aldehyde formation. The reaction was performed as follows. In a 1 mL reaction, 100 μg cell free extract of E. coli TOP10/pBAD.KA-AT was added to 10 mM DL-1-amino-2-propanol O-phosphate in 100 mM Tris-HCl, pH 7.8, with 0.1 mM PLP. The reaction was incubated at 37° C. for 10 min and 30 min, with an aliquot of 100 μL reaction mixture removed at each time point and mixed with 100 μL of 6 mg/mL MBTH in 375 mM glycine-HCl, pH 2.7. This mixture was incubated at 100° C. for 3 min, cooled on ice for 15-30 s, and 1 mL of 3.3 mg/mL FeCl3.6H2O (in 10 mM HCl) was added, followed by incubation for 30 min at room temperature. The absorbance of the reaction mixture which contains the aldehyde-MBTH adduct, was measured at 670 nm. In the presence of the aminopropanol phosphate substrate, PLP and cell free extract, formation of aldehyde was detected, as indicated by an Abs670 that was higher than the control background of up to 0.3. In the absence of either the substrate or the cell free extract, no aldehyde formation was detected. In the absence of added PLP, somewhat less amount aldehyde was detected, presumably due to the presence of PLP in the cell free extract.

[2] = tested on: Lactobacillus plantarum PN0512; assay: Growth of L. plantarum PN0512 in the presence of butanols at different temperatures (OD600); format: cell-based; parameters: key to Growth of L. plantarum PN0512 in the presence of 1-butanol / Growth of L. plantarum PN0512 in the presence of isobutanol / Growth of L. plantarum PN0512 in the presence of 2-butanol: +: growth observed as an increase in OD600.; −: no growth observed, i.e. no change in OD600
Procedure: Tolerance levels of bacterial strain Lactobacillus plantarum PN0512 (ATCC # PTA-7727) were determined at 25° C., 30° C. and 37° C. as follows. The strain was cultured in S30L medium (i.e., 10 mM ammonium sulfate, 5 mM potassium phosphate buffer, pH 7.0, 50 mM MOPS, pH 7.0, 2 mM MgCl2, 0.7 mM CaCl2, 50 μM MnCl2, 1 μM FeCl3, 1 μM ZnCl2, 1.72 μM CuCl2, 2.53 μM COCl2, 2.42 μM Na2MoO4, 2 μM thiamine hydrochloride, 10 mM glucose, and 0.2% yeast extract). An overnight culture in the absence of any test compound was started in 15 mL of the S30L medium in a 150 mL flask, with incubation at 37° C. in a shaking water bath. The next morning, the overnight culture was diluted into three 500 mL flasks containing 150 mL of fresh medium to an initial OD600 of about 0.08. Each flask was incubated in a shaking water bath, one each at 25° C., 30° C. and 37° C. Each large culture was allowed to acclimate at the test temperature for at least 0.5 h. […] Growth was followed by measuring OD600 for six hours after addition of the compounds.

[3] = Sample 2: induced cell free extract, PLP (+)
[4] = Sample 4: induced cell free extract, PLP (−)

CC(CN)OP(=O)(O)O (racemic) [Aminopropanol O-phosphate, DL-1-amino-2-propanol O-phosphate]
1.229: OD670, 10 min [1, 3]
2.264: OD670, 30 min [1, 3]
0.855: OD670, 10 min [1, 4]
1.454: OD670, 30 min [1, 4]

CC(C)CO [isobutanol]
−: Growth of L. plantarum PN0512 in the presence of isobutanol ([2]; 3.4 % w/v, 37° C.) | Growth of L. plantarum PN0512 in the presence of isobutanol ([2]; 3.6 % w/v, 25° C.) | Growth of L. plantarum PN0512 in the presence of isobutanol ([2]; 3.8 % w/v, 37° C.) | Growth of L. plantarum PN0512 in the presence of isobutanol ([2]; 4.3 % w/v, 37° C.)
3.3%: Concentration in which growth was not observed ([2]; 30° C.)
+: Growth of L. plantarum PN0512 in the presence of isobutanol ([2]; 0.5 % w/v, 37° C.) | Growth of L. plantarum PN0512 in the presence of isobutanol ([2]; 1.0 % w/v, 37° C.) | Growth of L. plantarum PN0512 in the presence of isobutanol ([2]; 1.5 % w/v, 25° C.) | Growth of L. plantarum PN0512 in the presence of isobutanol ([2]; 1.5 % w/v, 30° C.) | Growth of L. plantarum PN0512 in the presence of isobutanol ([2]; 1.5 % w/v, 37° C.) | Growth of L. plantarum PN0512 in the presence of isobutanol ([2]; 1.6 % w/v, 37° C.) | Growth of L. plantarum PN0512 in the presence of isobutanol ([2]; 1.8 % w/v, 37° C.) | Growth of L. plantarum PN0512 in the presence of isobutanol ([2]; 2.0 % w/v, 25° C.) | Growth of L. plantarum PN0512 in the presence of isobutanol ([2]; 2.0 % w/v, 30° C.) | Growth of L. plantarum PN0512 in the presence of isobutanol ([2]; 2.0 % w/v, 37° C.) | Growth of L. plantarum PN0512 in the presence of isobutanol ([2]; 2.1 % w/v, 37° C.) | Growth of L. plantarum PN0512 in the presence of isobutanol ([2]; 2.3 % w/v, 37° C.) | Growth of L. plantarum PN0512 in the presence of isobutanol ([2]; 2.4 % w/v, 25° C.) | Growth of L. plantarum PN0512 in the presence of isobutanol ([2]; 2.4 % w/v, 30° C.) | Growth of L. plantarum PN0512 in the presence of isobutanol ([2]; 2.4 % w/v, 37° C.) | Growth of L. plantarum PN0512 in the presence of isobutanol ([2]; 2.7 % w/v, 25° C.) | Growth of L. plantarum PN0512 in the presence of isobutanol ([2]; 2.7 % w/v, 30° C.) | Growth of L. plantarum PN0512 in the presence of isobutanol ([2]; 2.7 % w/v, 37° C.) | Growth of L. plantarum PN0512 in the presence of isobutanol ([2]; 2.9 % w/v, 25° C.) | Growth of L. plantarum PN0512 in the presence of isobutanol ([2]; 2.9 % w/v, 30° C.) | Growth of L. plantarum PN0512 in the presence of isobutanol ([2]; 2.9 % w/v, 37° C.) | Growth of L. plantarum PN0512 in the presence of isobutanol ([2]; 3.1 % w/v, 25° C.) | Growth of L. plantarum PN0512 in the presence of isobutanol ([2]; 3.1 % w/v, 30° C.) | Growth of L. plantarum PN0512 in the presence of isobutanol ([2]; 3.1 % w/v, 37° C.) | Growth of L. plantarum PN0512 in the presence of isobutanol ([2]; 3.3 % w/v, 25° C.) | Growth of L. plantarum PN0512 in the presence of isobutanol ([2]; […] w/v, 25° C.) | Growth of L. plantarum PN0512 in the presence of isobutanol ([2]; […] w/v, 37° C.)
3.1%: Concentration in which growth was observed ([2]; 30° C.) | Concentration in which growth was observed ([2]; 37° C.)
3.4%: Concentration in which growth was not observed ([2]; 37° C.)
3.5%: Concentration in which growth was observed ([2]; 25° C.)
−^2: Growth of L. plantarum PN0512 in the presence of isobutanol ([2]; 3.3 % w/v, 30° C.)

CCC(C)O (stereo not shown) [2-butanol]
5.2%: Concentration in which growth was observed ([2]; 25° C.)
−: Growth of L. plantarum PN0512 in the presence of 2-butanol ([2]; 4.7 % w/v, 37° C.) | Growth of L. plantarum PN0512 in the presence of 2-butanol ([2]; 4.9 % w/v, 30° C.) | Growth of L. plantarum PN0512 in the presence of 2-butanol ([2]; 5.2 % w/v, 37° C.) | Growth of L. plantarum PN0512 in the presence of 2-butanol ([2]; 5.6 % w/v, 25° C.) | Growth of L. plantarum PN0512 in the presence of 2-butanol ([2]; 5.6 % w/v, 37° C.) | Growth of L. plantarum PN0512 in the presence of 2-butanol ([2]; 6.0 % w/v, 37° C.) | Growth of L. plantarum PN0512 in the presence of 2-butanol ([2]; 6.4 % w/v, 37° C.) | Growth of L. plantarum PN0512 in the presence of 2-butanol ([2]; 7.3 % w/v, 37° C.)
4.3%: Concentration in which growth was observed ([2]; 37° C.)
4.5%: Concentration in which growth was not observed ([2]; 37° C.)
+: Growth of L. plantarum PN0512 in the presence of 2-butanol ([2]; 1.8 % w/v, 37° C.) | Growth of L. plantarum PN0512 in the presence of 2-butanol ([2]; 2.1 % w/v, 37° C.) | Growth of L. plantarum PN0512 in the presence of 2-butanol ([2]; 2.9 % w/v, 25° C.) | Growth of L. plantarum PN0512 in the presence of 2-butanol ([2]; 2.9 % w/v, 30° C.) | Growth of L. plantarum PN0512 in the presence of 2-butanol ([2]; 2.9 % w/v, 37° C.) | Growth of L. plantarum PN0512 in the presence of 2-butanol ([2]; 3.1 % w/v, 37° C.) | Growth of L. plantarum PN0512 in the presence of 2-butanol ([2]; 3.6 % w/v, 37° C.) | Growth of L. plantarum PN0512 in the presence of 2-butanol ([2]; 3.8 % w/v, 25° C.) | Growth of L. plantarum PN0512 in the presence of 2-butanol ([2]; 3.8 % w/v, 30° C.) | Growth of L. plantarum PN0512 in the presence of 2-butanol ([2]; 3.8 % w/v, 37° C.) | Growth of L. plantarum PN0512 in the presence of 2-butanol ([2]; 4.0 % w/v, 30° C.) | Growth of L. plantarum PN0512 in the presence of 2-butanol ([2]; 4.3 % w/v, 25° C.) | Growth of L. plantarum PN0512 in the presence of 2-butanol ([2]; 4.3 % w/v, 30° C.) | Growth of L. plantarum PN0512 in the presence of 2-butanol ([2]; 4.3 % w/v, 37° C.) | Growth of L. plantarum PN0512 in the presence of 2-butanol ([2]; 4.7 % w/v, 25° C.) | Growth of L. plantarum PN0512 in the presence of 2-butanol ([2]; 4.7 % w/v, 30° C.) | Growth of L. plantarum PN0512 in the presence of 2-butanol ([2]; 4.9 % w/v, 25° C.) | Growth of L. plantarum PN0512 in the presence of 2-butanol ([2]; 5.2 % w/v, 25° C.) | Growth of L. plantarum PN0512 in the presence of 2-butanol ([2]; […] w/v, 30° C.)
4.9%: Concentration in which growth was not observed ([2]; 30° C.)
4.7%: Concentration in which growth was observed ([2]; 30° C.)
